# In PMC11239673, “Structural basis for the bi-specificity of USP25 and USP28 inhibitors” (EMBO Reports, 2024):
# Positions count from the first letter of the chain named.
# How the values were obtained:
# Format in all cases: biochemical
# USP25Δtip Q322A = target: T1, USP25Δtip Q322A (Homo sapiens, UniProt Q9UHP3, DEL465-537/INS464GSGSGS/Q322A); assay: Ub-Rho110 dose–response assay, USP25Δtip Q322A
# T1 construct: 6xHis or thioredoxin-6xHis (N, cleaved yes); made in house; host or cells: E. coli BL21star (DE3)
# T1 sequence (Q9UHP3 with tags, fused parts or gaps Q322A/DEL465-477/P478G/DEL482-535/A536G/P537S limits assumed): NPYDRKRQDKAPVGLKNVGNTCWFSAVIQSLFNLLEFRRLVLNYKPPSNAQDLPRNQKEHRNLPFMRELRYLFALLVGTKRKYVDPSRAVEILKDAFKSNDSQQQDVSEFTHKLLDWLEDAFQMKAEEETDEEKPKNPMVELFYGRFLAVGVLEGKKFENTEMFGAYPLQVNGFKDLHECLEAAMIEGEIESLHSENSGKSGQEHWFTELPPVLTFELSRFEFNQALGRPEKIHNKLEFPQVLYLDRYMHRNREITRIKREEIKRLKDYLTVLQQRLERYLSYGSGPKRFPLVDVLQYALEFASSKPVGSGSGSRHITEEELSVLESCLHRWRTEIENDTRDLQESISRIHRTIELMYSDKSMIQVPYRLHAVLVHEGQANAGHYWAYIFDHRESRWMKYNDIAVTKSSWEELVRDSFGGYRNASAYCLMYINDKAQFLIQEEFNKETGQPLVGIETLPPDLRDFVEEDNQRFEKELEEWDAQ
# USP25Δtip WT = target: T2, USP25Δtip WT (Homo sapiens, UniProt Q9UHP3, A536G/DEL465-477/DEL482-535/P478G/P537S); assay: Ub-Rho110 dose–response assay, USP25Δtip wt; details: single replicates
# T2 construct: 6xHis or thioredoxin-6xHis (N, cleaved yes); made in house; host or cells: E. coli BL21star (DE3)
# T2 sequence (Q9UHP3 with tags, fused parts or gaps DEL465-477/P478G/DEL482-535/A536G/P537S limits assumed): T1 sequence (Q9UHP3 with tags, fused parts or gaps Q322A/DEL465-477/P478G/DEL482-535/A536G/P537S limits assumed) with A166Q
# USP25Δtip E373Q = target: T3, USP25Δtip E373Q (Homo sapiens, UniProt Q9UHP3, DEL465-537/E373Q/INS464GSGSGS); assay: Ub-Rho110 dose–response assay, USP25Δtip E373Q
# T3 construct: 6xHis or thioredoxin-6xHis (N, cleaved yes); made in house; host or cells: E. coli BL21star (DE3)
# T3 sequence (Q9UHP3 with tags, fused parts or gaps E373Q/DEL465-477/P478G/DEL482-535/A536G/P537S limits assumed): T1 sequence (Q9UHP3 with tags, fused parts or gaps Q322A/DEL465-477/P478G/DEL482-535/A536G/P537S limits assumed) with A166Q, E217Q
# USP25Δtip E373A = target: T4, USP25Δtip E373A (Homo sapiens, UniProt Q9UHP3, DEL465-537/E373A/INS464GSGSGS); assay: Ub-Rho110 dose–response assay, USP25Δtip E373A
# T4 construct: 6xHis or thioredoxin-6xHis (N, cleaved yes); made in house; host or cells: E. coli BL21star (DE3)
# T4 sequence (Q9UHP3 with tags, fused parts or gaps E373A/DEL465-477/P478G/DEL482-535/A536G/P537S limits assumed): T1 sequence (Q9UHP3 with tags, fused parts or gaps Q322A/DEL465-477/P478G/DEL482-535/A536G/P537S limits assumed) with A166Q, E217A
smiles,measurement,setting,value
Cc1ccc2c(N)c(C(=O)NC3CCc4cc(N5CC6CCC(C5)N6)ccc4C3)sc2n1 (stereo not shown) [FT206],inhibition at 100 µM,"USP25Δtip Q322A; inhibitor 100.00 µM, single replicates, read-out: relative inhibition [%] - USP25 - Q322A",94%
same,t-test vs. USP25 WT control - Q322A,"USP25Δtip Q322A; p value, inhibitor IC50 on USP25 Q322A compared with USP25 WT",8.787E-03
same,inhibition at 11.11 µM,"USP25Δtip Q322A; read-out: relative inhibition [%] - USP25 - Q322A, inhibitor 11.11 µM, single replicates",85.2%
same,inhibition at 33.33 µM,"USP25Δtip Q322A; read-out: relative inhibition [%] - USP25 - Q322A, inhibitor 33.33 µM, single replicates",88.7%
same,inhibition at 11.11 µM,"USP25Δtip WT; read-out: relative inhibition [%] - USP25 - WT, inhibitor 11.11 µM",91.9%
same,inhibition at 33.33 µM,"USP25Δtip WT; read-out: relative inhibition [%] - USP25 - WT, inhibitor 33.33 µM",99%
same,inhibition at 100 µM,"USP25Δtip WT; read-out: relative inhibition [%] - USP25 - WT, inhibitor 100.00 µM",100%
same,t-test vs. USP25 WT control - E373Q,"USP25Δtip E373Q; p value, inhibitor IC50 on USP25 E373Q compared with USP25 WT",8.243E-06
same,inhibition at 100 µM,"USP25Δtip E373Q; read-out: relative inhibition [%] - USP25 - E373Q, inhibitor 100.00 µM, single replicates",48.3%
same,t-test vs. USP25 WT control - E373A,"USP25Δtip E373A; p value, inhibitor IC50 on USP25 E373A compared with USP25 WT",3.888E-04
same,inhibition at 11.11 µM,"USP25Δtip E373A; read-out: relative inhibition [%] - USP25 - E373A, inhibitor 11.11 µM, single replicates",13.3%
same,inhibition at 33.33 µM,"USP25Δtip E373A; read-out: relative inhibition [%] - USP25 - E373A, inhibitor 33.33 µM, single replicates",33.6%
same,inhibition at 100 µM,"USP25Δtip E373A; read-out: relative inhibition [%] - USP25 - E373A, inhibitor 100.00 µM, single replicates",59.9%
